biological target: T1, melanocortin-4 receptor (Homo sapiens, UniProt P32245); test: Membrane binding assay (fluorescence polarization, competition with fluorescence labeled NDP-alpha-MSH); settings: read-out: hMC-4R binding assay IC50/μM
T1 construct: expressed in transfected cells; host or cells: HEK293 cells (membrane preparations)
T1 sequence (P32245 whole entry): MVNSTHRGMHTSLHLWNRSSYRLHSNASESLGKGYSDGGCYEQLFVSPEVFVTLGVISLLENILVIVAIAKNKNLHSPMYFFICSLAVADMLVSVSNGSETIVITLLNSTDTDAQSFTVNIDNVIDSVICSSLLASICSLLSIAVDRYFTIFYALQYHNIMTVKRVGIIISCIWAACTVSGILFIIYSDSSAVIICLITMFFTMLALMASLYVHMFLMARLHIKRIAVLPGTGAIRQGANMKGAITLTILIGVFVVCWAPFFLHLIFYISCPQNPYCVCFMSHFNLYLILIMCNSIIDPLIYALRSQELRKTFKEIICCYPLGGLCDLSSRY

IC50 [µM]	Structure (SMILES)
< 0.1	CC(C)CCN(CCC(C)C)C(=O)c1ccc2nc(-c3ccc(Cl)cn3)c(CCCN3CCCC3)n2c1 [Example 42]
< 0.1	COc1cccc(-c2nc3ccc(C(=O)N(CCC(C)C)CCC(C)C)cn3c2CCCN2CCC2)c1 [Example 11]
< 0.1	CC(C)CCN(CCC(C)C)C(=O)c1ccc2nc(-c3ccncc3)c(CCCN3CCCC3)n2c1 [Example 56]
< 0.1	COc1ccc(-c2nc3ccc(C(=O)N(CCC(C)C)CCC(C)C)cn3c2CCCN2CCCC2)cc1 [Example 6]
0.1 to 1	CC(C)CCN(CC(C)C)C(=O)c1ccc2nc(-c3ccc(C#N)cc3)c(CN3CCC(N)CC3)n2c1 [Example 150]
< 0.1	CC(C)CCN(CCC(C)C)C(=O)c1ccc2nc(-c3ccc4c(c3)OCO4)c(CCCN3CCCC3)n2c1 [Example 39]
0.1 to 1	CC(C)CCN(CCC(C)C)C(=O)c1ccc2nc(-c3ccc(C#N)cc3)c(CN3CCC(N(C)C)CC3)n2c1 [Example 113]
0.1 to 1	CC(C)CN(CC(C)C)C(=O)c1ccc2nc(-c3ccc(C#N)cc3)c(CCCN3CCCC3)n2c1 [Example 144]
0.1 to 1	CC(C)CCN(CCC(C)C)C(=O)c1ccc2nc(-c3ccc(C(=O)O)cc3)c(CCCN3CCCC3)n2c1 [Example 50]
> 1	COCC(C)NCCCc1c(-c2cccc(OC)c2)nc2ccc(C(=O)N(CCC(C)C)CCC(C)C)cn12 (stereo not drawn) [Example 13]
< 0.1	CC(C)CCN(CCC(C)C)C(=O)c1ccc2nc(-c3ncco3)c(CCCN3CCCC3C)n2c1 (stereo not drawn) [Example 69]
0.1 to 1	CC(C)CCN(CCC(C)C)C(=O)c1ccc2nc(-c3ncco3)c(CCCN3CC(O)C3)n2c1 [Example 73]
< 0.1	CNC(=O)c1ccc(-c2nc3ccc(C(=O)N(CCC(C)C)CCC(C)C)cn3c2CCCN2CCCC2)cc1 [Example 64]
> 1	COc1ccc(-c2nc3ccc(C(=O)N(CCC(C)C)CCC(C)C)cn3c2CN2CCC(N(C)C)CC2)c(OC)c1 [Example 129]
< 0.1	COc1cccc(-c2nc3ccc(C(=O)N(CCC(C)C)CCC(C)C)cn3c2CCCN2CCOC[C@@H]2C)c1 [Example 16]
0.1 to 1	CC1CCCN1CCCc1c(-c2ccc(=O)n(CCO)c2)nc2ccc(C(=O)N(CCC3CC3)CCC3CC3)cn12 (stereo not drawn) [Example 111]
> 1	CC(C)CCN(CCC(C)C)C(=O)c1ccc2nc(-c3ccc(Cl)cc3)c(CN3CCCC(N)C3)n2c1 (stereo not drawn) [Example 126]
< 0.1	COc1cccc(-c2nc3ccc(C(=O)N(CCC(C)C)CCC(C)C)cn3c2CCCN2CCOCC2)c1 [Example 12]
< 0.1	CC(C)CCN(CCC(C)C)C(=O)c1ccc2nc(-c3cc[nH]c(=O)c3)c(CCCN3CCCC3)n2c1 [Example 89]
< 0.1	CC(C)CCN(CCC(C)C)C(=O)c1ccc2nc(-c3ccc(=O)[nH]c3)c(CCCN3CCCC3)n2c1 [Example 59]
< 0.1	CC(C)CCN(CCC(C)C)C(=O)c1ccc2nc(-c3ccc(N)nc3)c(CCCN3CCCC3)n2c1 [Example 65]
0.1 to 1	COc1cccc(-c2nc3ccc(C(=O)N(CCC(C)C)CCC(C)C)cn3c2CN2CCC(N(C)C)CC2)c1 [Example 114]
0.1 to 1	CC(C)CCN(CCC(C)C)C(=O)c1ccc2nc(-c3ccc(Cl)cc3)c(CCCCN3CCCC3)n2c1 [Example 22]
> 1	COc1cccc(-c2nc3ccc(C(=O)N(CCC(C)C)CCC(C)C)cn3c2CN2CCC(N)C2)c1 (stereo not drawn) [Example 123]
0.1 to 1	CC(C)CCN(CCC(C)C)C(=O)c1ccc2nc(-c3cc[nH]c(=O)c3)c(CCCN(C)C)n2c1 [Example 88]
< 0.1	COc1cccc(-c2nc3ccc(C(=O)N(CCC(C)C)CCC(C)C)cn3c2CCCN2CC[C@@H](O)C2)c1 [Example 34]
0.1 to 1	CC(C)CCN(CCC(C)C)C(=O)c1ccc2nc(C3CCOCC3)c(CCCN3CCCC3)n2c1 [Example 98]
0.1 to 1	CC(C)CCN(CCC(C)C)C(=O)c1ccc2nc(-c3ccc(=O)[nH]c3)c(CCCN(C)C)n2c1 [Example 68]
> 1	CCCC1CCCN1C(=O)c1ccc2nc(-c3ccc(C#N)cc3)c(CCCN3CCCC3)n2c1 (stereo not drawn) [Example 147]

biological target: T1, melanocortin-4 receptor; test: Functional assay (cAMP fluorescence polarization, membrane based, agonistic activity); format: biochemical; settings: 2 h; read-out: % activation functional assay

Emax [%]	Structure (SMILES)
0	CC(C)CCN(CCC(C)C)C(=O)c1ccc2nc(-c3ccc(Cl)cn3)c(CCCN3CCCC3)n2c1 [Example 42]
0	COc1cccc(-c2nc3ccc(C(=O)N(CCC(C)C)CCC(C)C)cn3c2CCCN2CCC2)c1 [Example 11]
0	CC(C)CCN(CCC(C)C)C(=O)c1ccc2nc(-c3ccncc3)c(CCCN3CCCC3)n2c1 [Example 56]
0	COc1ccc(-c2nc3ccc(C(=O)N(CCC(C)C)CCC(C)C)cn3c2CCCN2CCCC2)cc1 [Example 6]
0	CC(C)CCN(CC(C)C)C(=O)c1ccc2nc(-c3ccc(C#N)cc3)c(CN3CCC(N)CC3)n2c1 [Example 150]
0	CC(C)CCN(CCC(C)C)C(=O)c1ccc2nc(-c3ccc4c(c3)OCO4)c(CCCN3CCCC3)n2c1 [Example 39]
0	CC(C)CCN(CCC(C)C)C(=O)c1ccc2nc(-c3ccc(C#N)cc3)c(CN3CCC(N(C)C)CC3)n2c1 [Example 113]
0	CC(C)CN(CC(C)C)C(=O)c1ccc2nc(-c3ccc(C#N)cc3)c(CCCN3CCCC3)n2c1 [Example 144]
-1	CC(C)CCN(CCC(C)C)C(=O)c1ccc2nc(-c3ccc(C(=O)O)cc3)c(CCCN3CCCC3)n2c1 [Example 50]
0	COCC(C)NCCCc1c(-c2cccc(OC)c2)nc2ccc(C(=O)N(CCC(C)C)CCC(C)C)cn12 (stereo not drawn) [Example 13]
0	CC(C)CCN(CCC(C)C)C(=O)c1ccc2nc(-c3ncco3)c(CCCN3CCCC3C)n2c1 (stereo not drawn) [Example 69]
-3	CC(C)CCN(CCC(C)C)C(=O)c1ccc2nc(-c3ncco3)c(CCCN3CC(O)C3)n2c1 [Example 73]
0	CNC(=O)c1ccc(-c2nc3ccc(C(=O)N(CCC(C)C)CCC(C)C)cn3c2CCCN2CCCC2)cc1 [Example 64]
0	COc1ccc(-c2nc3ccc(C(=O)N(CCC(C)C)CCC(C)C)cn3c2CN2CCC(N(C)C)CC2)c(OC)c1 [Example 129]
0	COc1cccc(-c2nc3ccc(C(=O)N(CCC(C)C)CCC(C)C)cn3c2CCCN2CCOC[C@@H]2C)c1 [Example 16]
-25	CC1CCCN1CCCc1c(-c2ccc(=O)n(CCO)c2)nc2ccc(C(=O)N(CCC3CC3)CCC3CC3)cn12 (stereo not drawn) [Example 111]
0	CC(C)CCN(CCC(C)C)C(=O)c1ccc2nc(-c3ccc(Cl)cc3)c(CN3CCCC(N)C3)n2c1 (stereo not drawn) [Example 126]
0	COc1cccc(-c2nc3ccc(C(=O)N(CCC(C)C)CCC(C)C)cn3c2CCCN2CCOCC2)c1 [Example 12]
-25	CC(C)CCN(CCC(C)C)C(=O)c1ccc2nc(-c3cc[nH]c(=O)c3)c(CCCN3CCCC3)n2c1 [Example 89]
0	CC(C)CCN(CCC(C)C)C(=O)c1ccc2nc(-c3ccc(=O)[nH]c3)c(CCCN3CCCC3)n2c1 [Example 59]
0	CC(C)CCN(CCC(C)C)C(=O)c1ccc2nc(-c3ccc(N)nc3)c(CCCN3CCCC3)n2c1 [Example 65]
0	COc1cccc(-c2nc3ccc(C(=O)N(CCC(C)C)CCC(C)C)cn3c2CN2CCC(N(C)C)CC2)c1 [Example 114]
0	CC(C)CCN(CCC(C)C)C(=O)c1ccc2nc(-c3ccc(Cl)cc3)c(CCCCN3CCCC3)n2c1 [Example 22]
0	COc1cccc(-c2nc3ccc(C(=O)N(CCC(C)C)CCC(C)C)cn3c2CN2CCC(N)C2)c1 (stereo not drawn) [Example 123]
-2	CC(C)CCN(CCC(C)C)C(=O)c1ccc2nc(-c3cc[nH]c(=O)c3)c(CCCN(C)C)n2c1 [Example 88]
-18	COc1cccc(-c2nc3ccc(C(=O)N(CCC(C)C)CCC(C)C)cn3c2CCCN2CC[C@@H](O)C2)c1 [Example 34]
-8	CC(C)CCN(CCC(C)C)C(=O)c1ccc2nc(C3CCOCC3)c(CCCN3CCCC3)n2c1 [Example 98]
0	CC(C)CCN(CCC(C)C)C(=O)c1ccc2nc(-c3ccc(=O)[nH]c3)c(CCCN(C)C)n2c1 [Example 68]
0	CCCC1CCCN1C(=O)c1ccc2nc(-c3ccc(C#N)cc3)c(CCCN3CCCC3)n2c1 (stereo not drawn) [Example 147]

same assay, conditions: agonistic activity, cAMP, HEK293 membrane preparations; read-out: hMC-4R functional assay EC50/μM

EC50 [µM]	Structure (SMILES)
< 0.1	CC(C)CCN(CCC(C)C)C(=O)c1ccc2nc(-c3cc[nH]c(=O)c3)c(CCCN3CCCC3)n2c1 [Example 89]
< 0.1	COc1cccc(-c2nc3ccc(C(=O)N(CCC(C)C)CCC(C)C)cn3c2CCCN2CC[C@@H](O)C2)c1 [Example 34]

From patent publication US8236818B2, “Substituted imidazopyridine derivatives as melanocortin-4 receptor antagonists” (Santhera Pharmaceuticals (Schweiz) AG, priority 2007, dated 2012)
